Measurements from patent US20260184663A1, “INDENE COMPOUNDS, PHARMACEUTICAL COMPOSITIONS THEREOF, AND THEIR THERAPEUTIC APPLICATIONS” (NucMito Pharmaceuticals co. Ltd., priority 2022, published 2026).
Where two headings read alike, the source gives them in different places.

Tests used:
Format in all cases: cell-based
HepG2 (liver cancer) = assay: Antiproliferative activity (CCK-8 cell viability), HepG2; conditions: Homo sapiens, 72 h; for inhibition at 3.3 µM: Compound concentration: 3.3 μM; for inhibition at 10 µM: Compound concentration: 10 μM; for inhibition at 30 µM: Compound concentration: 30 μM
Procedure, shortened: (§1)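 Growth inhibition graded in bands from percent viability against DMSO vehicle, read as CCK-8 absorbance at 450 nm. Compound tested at 3.3, 10 or 30 μM for 72 h, 37 °C; media contained 10% FBS: DMEM for HepG2/SW480, MEM for HeLa, F-12K for A549.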

[1] = tested on: B16F10 (malignant melanoma); assay: Antiproliferative activity (CCK-8 cell viability), B16F10; conditions: Mus musculus, 72 h; for inhibition at 3.3 µM: B16-F10, Compound concentration: 3.3 μM; for inhibition at 10 µM: B16-F10, Compound concentration: 10 μM; for inhibition at 30 µM: B16-F10, Compound concentration: 30 μM
Procedure, shortened: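 Cell growth inhibition was measured in B16F10 malignant melanoma cells with a Cell Counting Kit-8 viability assay. Cells were maintained in DMEM plus 10% fetal bovine serum, seeded at 2,000-5,000 cells/well in 96-well plates, and treated for 72 h at 37° C. Viability was expressed relative to DMSO-treated vehicle control wells.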

[2] = tested on: MDA-MB-231 (breast cancer); assay: Antiproliferative activity (CCK-8 cell viability), MDA-MB-231; conditions: Homo sapiens, 72 h, read-out: Antiproliferative activity in cancerous cells, MDA-MB-231 (inhibition of cell growth); for inhibition at 3.3 µM: Compound concentration: 3.3 μM; for inhibition at 10 µM: Compound concentration: 10 μM; for inhibition at 30 µM: Compound concentration: 30 μM
Procedure, shortened: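 Growth inhibition of human MDA-MB-231 breast cancer cells was assessed with a Cell Counting Kit-8. Cells cultured in DMEM plus 10% FBS were seeded at 2,000-5,000 cells/well, treated after attachment, and kept 72 h at 37° C. CCK-8 solution (10 μL) was added for 4 h, and absorbance at 450 nm was compared with DMSO-treated controls.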

[3] = tested on: alpha-smooth muscle actin (α-SMA); assay: Inhibition of TGF-β induced expression of alpha-smooth muscle actin (α-SMA) in CFSC cells (western blot); conditions: compound at 10 μM, TGF-β (10 ng/mL), 24 hours, band intensity vs TGF-β only
Procedure, shortened: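 Values are percent reduction of α-SMA band intensity relative to cells given TGF-β alone, quantified by Western blot densitometry with β-actin probed. Compound was applied at 10 μM alongside 10 ng/mL TGF-β to serum-free CFSC cultures for 24 h at 37 °C.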

[4] = tested on: A549 (lung adenocarcinoma); assay: Antiproliferative activity (CCK-8 cell viability), A549; conditions: Homo sapiens, 72 h; for inhibition at 3.3 µM: Compound concentration: 3.3 μM; for inhibition at 10 µM: Compound concentration: 10 μM; for inhibition at 30 µM: Compound concentration: 30 μM
Procedure, shortened: as §1

[5] = tested on: A431 (epidermoid carcinoma); assay: Antiproliferative activity (CCK-8 cell viability), A431; conditions: Homo sapiens, 72 h; for inhibition at 3.3 µM: A-431, Compound concentration: 3.3 μM; for inhibition at 10 µM: A-431, Compound concentration: 10 μM; for inhibition at 30 µM: A-431, Compound concentration: 30 μM
Procedure, shortened: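 This growth inhibition assay used A431 cells maintained in Dulbecco's modified Eagle's medium plus 10% fetal bovine serum. Cells were seeded in 96-well plates, treated with compound for 72 h at 37° C., and then given 10 μL CCK-8 solution. After a further 4 h, absorbance was read at 450 nm.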

SW480 (colon cancer) = assay: Antiproliferative activity (CCK-8 cell viability), SW480; conditions: Homo sapiens, 72 h; for inhibition at 3.3 µM: Compound concentration: 3.3 μM; for inhibition at 10 µM: Compound concentration: 10 μM; for inhibition at 30 µM: Compound concentration: 30 μM
Procedure, shortened: as §1

HeLa (cervical cancer) = assay: Antiproliferative activity (CCK-8 cell viability), HeLa; conditions: Homo sapiens, 72 h; for inhibition at 3.3 µM: Compound concentration: 3.3 μM; for inhibition at 10 µM: Compound concentration: 10 μM; for inhibition at 30 µM: Compound concentration: 30 μM
Procedure, shortened: as §1

[6] = read-out: Antiproliferative activity in cancerous cells, HepG2 (inhibition of cell growth)
[7] = read-out: Antiproliferative activity in cancerous cells, HepG2
[8] = read-out: Antiproliferative activity in cancerous cells, B16F10 (inhibition of cell growth)
[9] = read-out: Antiproliferative activity in cancerous cells, B16F10
[10] = read-out: Antiproliferative activity in cancerous cells, A549 (inhibition of cell growth)
[11] = read-out: Antiproliferative activity in cancerous cells, A549
[12] = read-out: Antiproliferative activity in cancerous cells, A431 (inhibition of cell growth)
[13] = read-out: Antiproliferative activity in cancerous cells, A431
[14] = read-out: Antiproliferative activity in cancerous cells, SW480 (inhibition of cell growth)
[15] = read-out: Antiproliferative activity in cancerous cells, HELA (inhibition of cell growth)
[16] = read-out: Antiproliferative activity in cancerous cells, HELA

| Compound | inhibition at 3.3 µM (HepG2 (liver cancer); [6]) [%] | inhibition at 10 µM (HepG2 (liver cancer); [6]) [%] | inhibition at 30 µM (HepG2 (liver cancer); [7]) [%] | inhibition at 3.3 µM [1, 8] [%] | inhibition at 10 µM [1, 8] [%] | inhibition at 30 µM [1, 9] [%] | inhibition at 3.3 µM [2] [%] | inhibition at 10 µM [2] [%] | inhibition at 10 µM [3] [%] | inhibition at 3.3 µM [4, 10] [%] | inhibition at 10 µM [4, 10] [%] | inhibition at 30 µM [4, 11] [%] | inhibition at 3.3 µM [5, 12] [%] | inhibition at 10 µM [5, 12] [%] | inhibition at 30 µM [5, 13] [%] | inhibition at 3.3 µM (SW480 (colon cancer); [14]) [%] | inhibition at 10 µM (SW480 (colon cancer); [14]) [%] | inhibition at 3.3 µM (HeLa (cervical cancer); [15]) [%] | inhibition at 10 µM (HeLa (cervical cancer); [15]) [%] | inhibition at 30 µM (HeLa (cervical cancer); [16]) [%] | also measured |
| --- | --- | --- | --- | --- | --- | --- | --- | --- | --- | --- | --- | --- | --- | --- | --- | --- | --- | --- | --- | --- | --- |
| CC1=C(CC(=O)O)c2cc(F)ccc2/C1=C\c1ccc(Sc2nc3ccccc3[nH]2)cc1 [C36, (Z)-2-(1-(4-((1H-Benzo[d]imidazol-2-yl)thio)benzylidene)-5-fluoro-2-methyl-1H-inden-3-yl)acetic acid] | < 30 | < 30 | < 30 | < 30 | < 30 | 30 to 50 | < 30 | 30 to 50 | < 30 | < 30 | < 30 | 30 to 50 | < 30 | < 30 | < 30 | < 30 | 30 to 50 | < 30 | 30 to 50 | – | inhibition at 30 µM (SW480 (colon cancer); read-out: Antiproliferative activity in cancerous cells, SW480): 30 to 50% |
| CC1=C(CC(=O)N2CCN(CCO)CC2)c2cc(F)ccc2/C1=C\c1ccc(Oc2ccc(F)cc2)cc1 [C37, (Z)-2-(5-Fluoro-1-(4-(4-fluorophenoxy)benzylidene)-2-methyl-1H-inden-3-yl)-1-(4-(2-hydroxyethyl)piperazin-1-yl)ethan-1-one] | < 30 | < 30 | – | < 30 | < 30 | < 30 | < 30 | < 30 | > 80 | < 30 | < 30 | – | < 30 | < 30 | 30 to 50 | < 30 | < 30 | < 30 | < 30 | < 30 | – |
| CC1=C(CC(=O)NCCN(C)C)c2cc(F)ccc2/C1=C\c1ccc(Oc2ccc(F)cc2)cc1 [C38, (Z)-N-(2-(Dimethylamino)ethyl)-2-(5-fluoro-1-(4-(4-fluorophenoxy)benzylidene)-2-methyl-1H-inden-3-yl)acetamide] | < 30 | ≥ 50 | – | ≥ 50 | ≥ 50 | – | < 30 | ≥ 50 | > 80 | ≥ 50 | ≥ 50 | – | < 30 | ≥ 50 | – | < 30 | ≥ 50 | < 30 | ≥ 50 | – | – |
| CC1=C(CC(=O)NCCN2CCOCC2)c2cc(F)ccc2/C1=C\c1ccc(Oc2ccc(F)cc2)cc1 [C39, (Z)-2-(5-Fluoro-1-(4-(4-fluorophenoxy)benzylidene)-2-methyl-1H-inden-3-yl)-N-(2-morpholinoethyl)acetamide] | < 30 | < 30 | < 30 | < 30 | < 30 | < 30 | < 30 | < 30 | 50 to 80 | < 30 | 30 to 50 | 30 to 50 | < 30 | < 30 | < 30 | < 30 | < 30 | < 30 | < 30 | < 30 | – |
| CC(C)c1ccc(/C=C2/C(Cc3ccc(F)cc3)=C(CC(=O)O)c3cc(F)ccc32)cc1 [D2, (Z)-2-(5-Fluoro-2-(4-fluorobenzyl)-1-(4-isopropylbenzylidene)-1H-inden-3-yl)-acetic acid] | < 30 | ≥ 50 | – | < 30 | ≥ 50 | – | ≥ 50 | ≥ 50 | > 80 | 30 to 50 | ≥ 50 | – | < 30 | ≥ 50 | – | < 30 | ≥ 50 | 30 to 50 | ≥ 50 | – | inhibition at 30 µM (HepG2 (liver cancer); [6]): ≥ 50%; inhibition at 30 µM [1, 8]: ≥ 50%; inhibition at 30 µM [2]: ≥ 50%; inhibition at 30 µM [4, 10]: ≥ 50%; inhibition at 30 µM [5, 12]: ≥ 50%; inhibition at 30 µM (SW480 (colon cancer); [14]): ≥ 50%; inhibition at 30 µM (HeLa (cervical cancer); [15]): ≥ 50% |
| CC1=C(CC(=O)O)c2c(F)cc(F)cc2/C1=C\c1cccc(C(F)(F)F)c1 [D6, (Z)-2-(4,6-Difluoro-2-methyl-1-(3-(trifluoromethyl)benzylidene)-1H-inden-3-yl)-acetic acid] | < 30 | < 30 | – | < 30 | < 30 | – | < 30 | < 30 | < 30 | < 30 | < 30 | – | < 30 | < 30 | – | < 30 | < 30 | < 30 | < 30 | – | inhibition at 30 µM (HepG2 (liver cancer); [6]): 30 to 50%; inhibition at 30 µM [1, 8]: < 30%; inhibition at 30 µM [2]: ≥ 50%; inhibition at 30 µM [4, 10]: ≥ 50%; inhibition at 30 µM [5, 12]: < 30%; inhibition at 30 µM (SW480 (colon cancer); [14]): 30 to 50%; inhibition at 30 µM (HeLa (cervical cancer); [15]): ≥ 50% |
